Test results from patent US20260174875A1 (Novo Nordisk A/S, priority 2023, published 2026).
pEC50: −log10 of the molar value. Numbered stars: 1 amine (or outer) side, 2 acyl side, 3 side chain; on linkers, the order of the positions; unused ones are H or OH. Square brackets hold non-standard residues; d marks the D form. Side chains are listed from the residue outwards. * marks the point of attachment. C16 diacid = O=C(O)CCCCCCCCCCCCCCC(=O)*; γGlu = O=C(O)[C@H](CCC(=O)[*:2])N[*:1]; AEEA = NCCOCCOCC(=O)O; Aib = CC(C)(N)C(=O)O

Key:
[1] = Chemical stability assessment in formulation (UPLC-UV-MS purity loss at 37° C.); assay type: physicochemical; conditions: 8 mM phosphate buffer pH 7.4, 1 mg/mL, 2 weeks
Procedure, shortened: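 Peptides at target 1 mg/mL in 8 mM phosphate buffer, pH adjusted to 7.4, incubated in capped vials at 37° C. and sampled over 2 weeks, frozen until analysis. Purity followed by UPLC-UV-MS with a 0.1% formic acid water/acetonitrile gradient.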

[2] = molecular target: T1, human amylin receptor (hAMYR3) (Homo sapiens, UniProt O60896+P30988); assay: Amylin receptor assay, method B (CRE-luciferase reporter, BHK cells); assay type: cell-based
T1 construct: host or cells: BHK cells (Hollex-1 line expressing hCTR(a) and CRE-Luc), further transfected with human RAMP3
Procedure, shortened: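 BHK cells with CRE-luciferase, co-expressing hAMYR3 and transfected with human RAMP3, seeded overnight, then exposed 3 h at 37 °C to compound. Buffer: phenol red-free DMEM, 10 mM HEPES, 1% ovalbumin, with 0% or 1% (w/v) HSA. Luminescence read after 30 min with steadylite Plus.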

[3] = molecular target: T2, human GIP receptor (hGIPR) (Homo sapiens, UniProt P48546); assay: GIP receptor assay, method B (CRE-luciferase reporter, BHK cells, 384-well); assay type: cell-based
T2 construct: expressed in transfected cells
T2 sequence (P48546 22-466): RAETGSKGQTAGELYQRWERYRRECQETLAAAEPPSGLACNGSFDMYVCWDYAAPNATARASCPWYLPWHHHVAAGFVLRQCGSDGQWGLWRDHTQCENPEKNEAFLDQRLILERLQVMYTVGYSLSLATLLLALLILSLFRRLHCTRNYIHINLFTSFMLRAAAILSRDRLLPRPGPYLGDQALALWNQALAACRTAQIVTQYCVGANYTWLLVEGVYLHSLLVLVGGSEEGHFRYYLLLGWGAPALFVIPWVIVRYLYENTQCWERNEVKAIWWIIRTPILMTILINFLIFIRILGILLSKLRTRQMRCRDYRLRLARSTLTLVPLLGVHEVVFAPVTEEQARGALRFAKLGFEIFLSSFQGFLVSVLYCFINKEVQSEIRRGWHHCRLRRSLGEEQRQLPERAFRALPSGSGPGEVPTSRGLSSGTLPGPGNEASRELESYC

[4] = molecular target: T3, human GLP-1 receptor (hGLP-1R) (Homo sapiens, UniProt P43220); assay: GLP-1 receptor assay, method B (CRE-luciferase reporter, BHK cells, 384-well); assay type: cell-based
T3 construct: expressed in transfected cells
Protocol: To assess how the activation of the receptors is potentially influenced by the presence of human serum albumin (HSA), the in vitro assays were performed in the absence of HSA and presence of 1% (w/v) HSA.
Cells at approximately 80-90% confluence were washed once in PBS (Gibco 14190-094) and loosened from the cell flasks with Versene (Gibco, 15040-033). […] Cells were aliquoted and stored at −180° C. until use.
The assay buffer consisted of DMEM without phenol red (Gibco, 11880-028) supplemented with 1× GlutaMAX (Gibco, 35050-038), 10 mM HEPES (Gibco, 15630-056), 1% (w/v) ovalbumin (Sigma, A5503) and 0.1% (v/v) Pluronic F-68 (Gibco, 24040-032) either with HSA or without HSA (Sigma, A9511).
Serial dilutions were transferred to a 384-well assay plate (PerkinElmer/Revvity, 6007688) and mixed with an equal volume (10 μL) of assay buffer without or with 3% (w/v) HSA (Sigma, A-9511). Frozen stocks of hGLP-1R BHK Cre-Luc cells were thawed in a 37° C. water bath, washed once in PBS (Gibco 14190-094), diluted to 1.5×10^5 (1.5E+5) cells/mL in assay buffer (without HSA) and added (10 μL) to each well of the 384-well assay plate. After a short centrifugation, the assay plates were incubated for 3 hours at 37° C. in 5% CO2 and let to equilibrated at room temperature for 10 minutes before the addition of 30 μL steadylite Plus™ PerkinElmer/Revvity, 6066759) per well. Plates were sealed and incubated at room temperature with gentle shaking for 30 minutes while protected from light. Luminescence was detected on a luminescence plate reader e.g. a Synergy 2 (BioTek).

[5] = test system: Male Sprague Dawley (SD) rats; assay: Efficacy testing on appetite: acute food intake in ad libitum fed normal weight rats; assay type: in vivo, rat; conditions: single dose 10 nmol/kg
Excerpt: Male Sprague Dawley (SD) rats from Taconic, Denmark were used for the acute food intake experiments, wherein the principles of laboratory animal care were followed.
The rats arrived at least 10-14 days before the start of the experiment to allow acclimatization to experimental settings. During this period, the animals were handled (fixation by restrain in neck skin) at least 2 times. Immediately upon arrival, rats were changed to a reversed light cycle (dark from 11 am-11 pm) and were transferred to an automated food intake measuring system (HM2 system, MBRose; Faaborg, Denmark). […] To enable recording of individual food intake, rats were ID chipped. Three rats were housed in each cage. During the acclimatization period, in which the rats get used to the new light cycle and diet (LF 10% (D12450B), from Research Diets Inc.), the animals had free access to food and water. Since rats are normally active and consume most of their daily calories during the dark period, rats were dosed in the morning right before lights were turned off. Such a set-up results in the lowest data variation and highest test sensitivity. […] In each cage there were animals from three different treatment groups (to eliminate potential cage effects (e.g. cage malfunction) on primary readout: food intake). The rats were dosed once subcutaneously (s.c.) with the peptide of interest according to body weight (10 or 30 nmol/kg) in vehicle (0.5 ml/kg) using a NovoPen® (Novo Nordisk, Bagsvæed, Denmark).
The compounds of the invention were formulated (20 or 60 nmol/ml) in the following vehicle: 8 mM phosphate; 250 mM glycerol; 0.007% polysorbate 20, pH 7.4.
After dosing, the rats were returned to their home cages, where they continued to have ad libitum access to chow and water. The food consumption was recorded individually and continuously by the HM2 system from 0-72 h after test compound administration. Data obtained by the HM-2 system were stored in a HMBase SQL database (Firebird® relational database management system) and were processed by HM2Lab software (MBRose; Faaborg, Denmark) installed in an embedded computer. The feeding system is a highly sensitive system with a load resolution of 0.001 g.

[6] = molecular target: T2, human GIP receptor (hGIPR); assay: GIP receptor assay, method A (CRE-luciferase reporter, BHK cells); assay type: cell-based; conditions: method A, absence of HSA; read-out: hGIPR Potency, no HSA, EC50
Procedure, shortened: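 BHK cells co-expressing hGIPR and a CRE-luciferase reporter, plated 21-23 h before assay, stimulated 3 h at 37 °C with compounds (7-point 10-fold titration, duplicates) in ovalbumin-containing DMEM buffer with or without 1% HSA final. Luminescence read; EC50 (pM) from four-parameter logistic fit with shared Hill slope.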

[7] = molecular target: T1, human amylin receptor (hAMYR3); assay: Amylin receptor assay, method A (CRE-luciferase reporter, BHK cells); assay type: cell-based; conditions: method A, absence of HSA; read-out: hAMYR3 Potency, no HSA, EC50
[8] = molecular target: T3, human GLP-1 receptor (hGLP-1R); assay: GLP-1 receptor assay, method A (CRE-luciferase reporter, BHK cells); assay type: cell-based; conditions: method A, absence of HSA; read-out: hGLP-1R Potency, no HSA, EC50
Procedure, shortened: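 Read-out: steadylite Plus luminescence after 30 min shaking at room temperature in the dark. hGLP-1R BHK CRE-Luc cells were stimulated for 3 h at 37° C, 5% CO2. Runs were done in the absence and presence of 1% (w/v) HSA.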

[9] = hAMYR3 Potency, 1% HSA, EC50, methods B, in the presence of 1% HSA
[10] = method B, absence of HSA, read-out: hAMYR3 Potency, no HSA, EC50
[11] = hGIPR Potency, 1% HSA, EC50, methods B, in the presence of 1% HSA
[12] = method B, absence of HSA, read-out: hGIPR Potency, no HSA, EC50
[13] = hGLP-1R Potency, 1% HSA, EC50, methods B, in the presence of 1% HSA
[14] = method B, absence of HSA, read-out: hGLP-1R Potency, no HSA, EC50

T3 sequence (P43220 24-463): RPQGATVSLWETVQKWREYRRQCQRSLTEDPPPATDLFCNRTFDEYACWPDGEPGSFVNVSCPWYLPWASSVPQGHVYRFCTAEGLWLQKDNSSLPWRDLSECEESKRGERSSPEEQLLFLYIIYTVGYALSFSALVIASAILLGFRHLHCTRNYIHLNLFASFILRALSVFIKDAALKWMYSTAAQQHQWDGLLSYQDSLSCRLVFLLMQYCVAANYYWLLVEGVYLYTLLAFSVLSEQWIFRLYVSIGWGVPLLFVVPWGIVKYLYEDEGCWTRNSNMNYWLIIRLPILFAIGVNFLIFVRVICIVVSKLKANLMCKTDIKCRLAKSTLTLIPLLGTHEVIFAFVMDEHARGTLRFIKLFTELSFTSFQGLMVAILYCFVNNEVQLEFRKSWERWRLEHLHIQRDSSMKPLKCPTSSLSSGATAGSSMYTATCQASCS
T1 sequence (P30988 25-474): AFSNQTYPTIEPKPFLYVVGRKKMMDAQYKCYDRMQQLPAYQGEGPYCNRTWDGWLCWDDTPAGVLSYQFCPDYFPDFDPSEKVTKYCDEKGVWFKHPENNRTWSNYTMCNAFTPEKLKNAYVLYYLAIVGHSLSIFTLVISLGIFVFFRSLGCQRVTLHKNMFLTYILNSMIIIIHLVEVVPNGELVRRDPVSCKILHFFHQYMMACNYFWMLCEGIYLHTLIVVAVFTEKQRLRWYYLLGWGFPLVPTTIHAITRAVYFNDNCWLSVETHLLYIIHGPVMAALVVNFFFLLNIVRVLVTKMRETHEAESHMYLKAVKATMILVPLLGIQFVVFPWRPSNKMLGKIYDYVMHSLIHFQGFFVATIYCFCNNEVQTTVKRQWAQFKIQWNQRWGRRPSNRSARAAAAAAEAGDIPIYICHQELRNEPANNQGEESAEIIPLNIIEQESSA
T1 sequence (O60896 24-148): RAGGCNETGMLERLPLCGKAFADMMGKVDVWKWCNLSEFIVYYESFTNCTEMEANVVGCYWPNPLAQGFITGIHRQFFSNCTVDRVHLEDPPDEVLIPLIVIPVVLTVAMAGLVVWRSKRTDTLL

Purity loss per week at 37° C. [1] [%] | pEC50 [2, 9] | pEC50 [2, 10] | pEC50 [3, 11] | pEC50 [3, 12] | pEC50 [4, 13] | pEC50 [4, 14] | pEC50 [6] | pEC50 [7] | pEC50 [8] | Compound | Food intake (relative to vehicle) Day 1 ([5]; day 1 [0-24 hours]) [%] | Food intake (relative to vehicle) Day 2 ([5]; day 2 [24-48 hours]) [%] | Food intake (relative to vehicle) Day 3 ([5]; day 3 [48-72 hours]) [%]
1.0 | 9.27 | 11.03 | 11.12 | 11.62 | 10.05 | 10.60 | – | – | – | CC[C@H](C)[C@H](NC(=O)[C@H](CCC(=O)O)NC(=O)[C@H](CCC(=O)O)NC(=O)[C@H](CC(C)C)NC(=O)[C@H](CC(C)C)NC(=O)[C@@H](NC(=O)[C@H](CO)NC(=O)[C@H](Cc1ccc(O)cc1)NC(=O)[C@H](CC(=O)O)NC(=O)[C@H](CO)NC(=O)[C@@H](NC(=O)[C@H](Cc1ccccc1)NC(=O)[C@@H](NC(=O)CNC(=O)[C@H](CCC(=O)O)NC(=O)C(C)(C)NC(=O)[C@@H](N)Cc1ccc(O)cc1)[C@@H](C)O)[C@@H](C)O)[C@@H](C)CC)C(=O)N[C@@H](C)C(=O)N[C@@H](C)C(=O)N[C@@H](CCCNC(=N)N)C(=O)N[C@@H](CCC(=O)O)C(=O)N[C@@H](Cc1ccccc1)C(=O)N[C@H](C(=O)N[C@@H](CCC(=O)O)C(=O)N[C@@H](Cc1c[nH]c2ccccc12)C(=O)N[C@@H](CC(C)C)C(=O)N[C@@H](CC(C)C)C(=O)N[C@@H](C)C(=O)NCC(=O)NCC(=O)N1CCC[C@H]1C(=O)N[C@@H](CO)C(=O)N[C@@H](CO)C(=O)N[C@@H](CCC(=O)O)C(=O)N[C@@H](C)C(=O)NCC(=O)N[C@@H](CCC(N)=O)C(=O)N[C@@H](C)C(=O)N1CCC[C@H]1C(=O)NCC(=O)N[C@@H](CCC(N)=O)C(=O)N[C@@H](C)C(=O)N1CCC[C@H]1C(=O)NCC(=O)N[C@@H](C)C(=O)N[C@@H](CO)C(=O)N[C@@H](Cc1c[nH]cn1)C(=O)N[C@@H](CC(C)C)C(=O)N[C@@H](CO)C(=O)N[C@H](C(=O)N[C@@H](C)C(=O)N[C@@H](CCC(N)=O)C(=O)N[C@H](C(=O)N[C@@H](CCC(N)=O)C(=O)N[C@@H](CCCNC(=N)N)C(=O)N[C@@H](CC(C)C)C(=O)N[C@@H](CO)C(=O)N[C@@H](C)C(=O)N[C@@H](CCC(=O)O)C(=O)N[C@@H](CC(C)C)C(=O)N[C@@H](Cc1c[nH]cn1)C(=O)N[C@@H](CCCCNC(=O)COCCOCCNC(=O)COCCOCCNC(=O)CC[C@H](NC(=O)CCCCCCCCCCCCCCCCCCC(=O)O)C(=O)O)C(=O)N[C@@H](CC(C)C)C(=O)N[C@@H](C)C(=O)N[C@H](C(=O)N[C@@H](CCC(=O)O)C(=O)N1CCC[C@H]1C(=O)N[C@@H](CCCNC(=N)N)C(=O)N[C@H](C(=O)N[C@@H](CCC(=O)O)C(=O)N[C@H](C(=O)NCC(=O)N[C@@H](CO)C(=O)NCC(=O)N[C@@H](CO)C(=O)N1CCC[C@H]1C(N)=O)[C@@H](C)O)[C@@H](C)O)[C@@H](C)O)[C@@H](C)O)[C@@H](C)O)[C@@H](C)CC [Compound 165] | – | – | –
– | 9.10 | 10.95 | 10.62 | 11.44 | 9.75 | 10.52 | – | – | – | CC[C@H](C)[C@H](NC(=O)[C@H](CCC(=O)O)NC(=O)[C@H](CCC(=O)O)NC(=O)[C@H](CC(C)C)NC(=O)[C@H](CC(C)C)NC(=O)[C@@H](NC(=O)[C@H](CO)NC(=O)[C@H](Cc1ccc(O)cc1)NC(=O)[C@H](CC(=O)O)NC(=O)[C@H](CO)NC(=O)[C@@H](NC(=O)[C@H](Cc1ccccc1)NC(=O)[C@@H](NC(=O)CNC(=O)[C@H](CCC(=O)O)NC(=O)C(C)(C)NC(=O)[C@@H](N)Cc1ccc(O)cc1)[C@@H](C)O)[C@@H](C)O)[C@@H](C)CC)C(=O)N[C@@H](C)C(=O)N[C@@H](C)C(=O)N[C@@H](CCCNC(=N)N)C(=O)N[C@@H](CCC(=O)O)C(=O)N[C@@H](Cc1ccccc1)C(=O)N[C@H](C(=O)N[C@@H](CCC(=O)O)C(=O)N[C@@H](Cc1c[nH]c2ccccc12)C(=O)N[C@@H](CC(C)C)C(=O)N[C@@H](CC(C)C)C(=O)N[C@@H](C)C(=O)NCC(=O)NCC(=O)N1CCC[C@H]1C(=O)N[C@@H](CO)C(=O)N[C@@H](CO)C(=O)NCC(=O)N[C@@H](C)C(=O)NCC(=O)N[C@@H](C)C(=O)N[C@@H](CO)C(=O)N[C@@H](CCC(=O)O)C(=O)N[C@@H](CC(C)C)C(=O)N[C@@H](CO)C(=O)N[C@H](C(=O)N[C@@H](C)C(=O)N[C@@H](CCC(N)=O)C(=O)N[C@H](C(=O)N[C@@H](CCC(N)=O)C(=O)N[C@@H](CCCNC(=N)N)C(=O)N[C@@H](CC(C)C)C(=O)N[C@@H](CO)C(=O)N[C@@H](C)C(=O)N[C@@H](CCC(=O)O)C(=O)N[C@@H](CC(C)C)C(=O)N[C@@H](Cc1c[nH]cn1)C(=O)N[C@@H](CCCCNC(=O)COCCOCCNC(=O)COCCOCCNC(=O)CC[C@H](NC(=O)CCCCCCCCCCCCCCCCCCC(=O)O)C(=O)O)C(=O)N[C@@H](CC(C)C)C(=O)N[C@@H](C)C(=O)N[C@H](C(=O)N[C@@H](CC(C)C)C(=O)N1CCC[C@H]1C(=O)N[C@@H](CCCNC(=N)N)C(=O)N[C@H](C(=O)N[C@@H](CCC(=O)O)C(=O)N[C@H](C(=O)NCC(=O)N[C@@H](CO)C(=O)NCC(=O)N[C@@H](CO)C(=O)N1CCC[C@H]1C(N)=O)[C@@H](C)O)[C@@H](C)O)[C@@H](C)O)[C@@H](C)O)[C@@H](C)O)[C@@H](C)CC [Compound 176] | −12 | 2 | 7
– | 8.89 | – | 10.70 | – | 9.87 | – | 11.14 | 11.41 | 10.28 | Y[Aib]EGTFTSDYSILLEEQAAREFIEWLLAGGPSK([AEEA-AEEA-γGlu-C16 diacid])GEASELSTAALGRLSAELHRLATLPRTETGSGSP-NH2 [Compound 18] | – | – | –
